Assay in all cases: NCI human tumor cell panel
Common to all, as to format: cell-based

Experiment [1] relates to OVCAR-4. The settings on record: OVCAR-4, read-out: Log10 LC50 (converted).
In experiment [2] the test system is DU-145. The settings on record: DU-145, read-out: Log10 LC50 (converted).
In experiment [3] the test system is 786-0. The settings on record: 786-0, read-out: Log10 LC50 (converted).
Experiment [4] deals with BT-549. Conditions: BT-549, read-out: Log10 LC50 (converted).
For experiment [5], the system named is SR. The settings on record: read-out: Log10 LC50 (converted).
Experiment [6] has as its system ACHN. Conditions: read-out: Log10 LC50 (converted).
Experiment [7] concerns NCI-H522. The settings on record: NCI-H522, read-out: Log10 LC50 (converted).
Experiment [8] deals with SF-539. The settings on record: SF-539, read-out: Log10 LC50 (converted).
The subject of experiment [9] is HCT-15. Conditions: HCT-15, read-out: Log10 LC50 (converted).
In experiment [10] the test system is MDA-N. Conditions: read-out: Log10 LC50 (converted).
Experiment [11] deals with NCI-H322M. Conditions: read-out: Log10 LC50 (converted).
Experiment [12] deals with CCRF-CEM. Conditions: read-out: Log10 LC50 (converted).
The subject of experiment [13] is OVCAR-5. The settings on record: OVCAR-5, read-out: Log10 LC50 (converted).
The subject of experiment [14] is A549/ATCC. The settings on record: A549, read-out: Log10 LC50 (converted).
The subject of experiment [15] is HOP-92. Conditions: HOP-92, read-out: Log10 LC50 (converted).
Experiment [16] concerns IGROV1. Conditions: IGROV-1, read-out: Log10 LC50 (converted).
Experiment [17] relates to SW-620. The settings on record: SW-620, read-out: Log10 LC50 (converted).
Experiment [18] concerns LOX IMVI. The settings on record: read-out: Log10 LC50 (converted).
Experiment [19] concerns NCI-H460. The settings on record: NCI-H460, read-out: Log10 LC50 (converted).
For experiment [20], the system named is M14. Conditions: M14, read-out: Log10 LC50 (converted).
The test system of experiment [21] is MOLT-4. The settings on record: MOLT-4, read-out: Log10 LC50 (converted).
The test system of experiment [22] is HCT-116. The settings on record: HCT-116, read-out: Log10 LC50 (converted).

With `OCc1ccc(-c2ccc(-c3ccc(CO)[se]3)s2)s1`, the CC50 was 81.3 µM in experiment [1]; more than 100 µM in experiment [2]; 57.5 µM in experiment [3]; more than 100 µM in [4]; more than 100 µM in experiment [5]; more than 100 µM in experiment [6]. In addition, the CC50 in experiment [7] was more than 100 µM; in [8] it was 83.2 µM; in experiment [9], more than 100 µM; in experiment [12], more than 100 µM; in experiment [13] it was more than 100 µM; in experiment [14] it was more than 100 µM. For the same compound, the CC50 was more than 100 µM in [15]; 28.2 µM in [16]; more than 100 µM in experiment [17]; 56.2 µM in experiment [18]; more than 100 µM in experiment [20]; more than 100 µM in [21]. For the same compound, the CC50 in [22] is 81.3 µM. In addition, in [10], the LC50 (50% lethal concentration) is more than 100 µM. Further, the figures for the LC50 (concentration killing 50% of cells) in experiment [11] and in experiment [19] were more than 100 µM and 28.8 µM, respectively.

As for `OCc1ccc(-c2ccc(-c3ccc(CO)[se]3)[se]2)[se]1`, the CC50 in experiment [1] is 49 µM; in experiment [2], 46.8 µM; in [3], 70.8 µM; in experiment [4] it was more than 100 µM; in [5], more than 100 µM; in experiment [6], more than 100 µM. Further, the CC50 in experiment [7] was 7.08 µM; in experiment [8], 95.5 µM; in experiment [9], 55 µM; in [12] it was more than 100 µM; in experiment [13], more than 100 µM; in experiment [14], 53.7 µM. Moreover, the CC50 was 55 µM in experiment [15]; 30.2 µM in [16]; 9.55 µM in [17]; more than 100 µM in experiment [18]; 49 µM in [20]; more than 100 µM in [21]. Further, the CC50 in experiment [22] is more than 100 µM. The LC50 (50% lethal concentration) in experiment [10] is 74.1 µM. Further, the LC50 (concentration killing 50% of cells) in [11] was 52.5 µM; in experiment [19], 81.3 µM.

With `OCc1ccc(-c2ccc(-c3cccs3)[se]2)s1`, the CC50 in experiment [1], in experiment [2], in [3], in [4], in experiment [5] and in [6] was more than 100 µM throughout. Moreover, the CC50 in [7], in [8], in [9], in experiment [12], in experiment [13] and in experiment [14] was more than 100 µM throughout. Besides, the CC50 in experiment [15] is more than 100 µM; in experiment [16], 16.2 µM; in experiment [17], more than 100 µM; in [18], more than 100 µM; in [20] it was more than 100 µM; in experiment [21] it was more than 100 µM. The CC50 in experiment [22] was 2.95 µM. Moreover, the LC50 (50% lethal concentration) in [10] was more than 100 µM. The LC50 (concentration killing 50% of cells) in experiment [11] and in experiment [19] was more than 100 µM throughout.

For `O=Cc1ccc(-c2ccc(-c3ccc(C=O)[se]3)s2)[se]1`, the CC50 in [1], in experiment [2], in experiment [3], in experiment [4], in experiment [5] and in [6] was more than 100 µM throughout. The CC50 in [7] was more than 100 µM; in experiment [8], more than 100 µM; in experiment [9], more than 100 µM; in [12] it was more than 100 µM; in experiment [13], 3.55 µM; in [14] it was more than 100 µM. For the same compound, the CC50 in experiment [15], in experiment [16], in [17], in experiment [18], in experiment [20] and in experiment [21] was more than 100 µM in each case. For the same compound, the CC50 in experiment [22] is more than 100 µM. Further, the LC50 (50% lethal concentration) in [10] was more than 100 µM. Moreover, the LC50 (concentration killing 50% of cells) in [11] and in experiment [19] was more than 100 µM each time.

With `O=Cc1ccc(-c2ccc(-c3ccc(C=O)[se]3)[se]2)[se]1`, the CC50 in experiment [1], in experiment [2], in [3], in experiment [4], in [5] and in experiment [6] was more than 100 µM in each case. Also, the CC50 is 95.5 µM in experiment [7]; more than 100 µM in [8]; more than 100 µM in [9]; more than 100 µM in [12]; more than 100 µM in experiment [13]; more than 100 µM in [14]. Moreover, the CC50 was more than 100 µM in [15]; 74.1 µM in experiment [16]; more than 100 µM in experiment [17]; more than 100 µM in [18]; more than 100 µM in experiment [20]; more than 100 µM in experiment [21]. In addition, the CC50 in [22] is more than 100 µM. Moreover, in experiment [10], the LC50 (50% lethal concentration) was more than 100 µM. The LC50 (concentration killing 50% of cells) in experiment [11] and in experiment [19] was more than 100 µM each time.

On to `O=Cc1ccc(-c2ccc(-c3cccs3)[se]2)s1`, for which the CC50 in experiment [1], in experiment [2], in [3], in [4], in experiment [5] and in [6] was more than 100 µM in each case. Further, the CC50 in experiment [7], in experiment [8], in experiment [9], in [12], in [13] and in experiment [14] was more than 100 µM throughout. For the same compound, the CC50 in experiment [15], in experiment [16], in experiment [17], in [18], in experiment [20] and in experiment [21] was more than 100 µM each time. Besides, the CC50 in experiment [22] was more than 100 µM. Moreover, the LC50 (50% lethal concentration) in experiment [10] was more than 100 µM. Besides, the LC50 (concentration killing 50% of cells) in [11] and in experiment [19] was more than 100 µM in each case.

`O=Cc1ccc(-c2ccc(-c3ccc(C=O)s3)[se]2)s1`: the CC50 in [1], in [2], in experiment [3], in [4], in experiment [5] and in experiment [6] was more than 100 µM in each case. For the same compound, the CC50 in experiment [7], in [8], in [9], in [12], in experiment [13] and in [14] was more than 100 µM in each case. Moreover, the CC50 in [15], in experiment [16], in experiment [17], in [18], in [20] and in experiment [21] was more than 100 µM throughout. Besides, in experiment [22], the CC50 is more than 100 µM. Also, in [10], the LC50 (50% lethal concentration) is more than 100 µM. Besides, the LC50 (concentration killing 50% of cells) in [11] and in [19] was more than 100 µM throughout.
